Assays:
[1] = system: Radical scavenging activity; experiment: Hydroxyl radical scavenging activity; format: functional
[2] = system: Radical scavenging activity; experiment: Hydroxyl radical scavenging activity at 2 mM; format: functional

For `CC(C)=CCC[C@](C)(O)[C@H]1CC[C@]2(C)[C@@H]1[C@H](O)C[C@@H]1[C@@]3(C)CC[C@H](O[C@@H]4O[C@H](CO)[C@@H](O)[C@H](O)[C@H]4O[C@@H]4O[C@H](CO)[C@@H](O)[C@H](O)[C@H]4O)C(C)(C)[C@@H]3CC[C@]12C`, the IC50 [1] was 440 µM and the inhibition [2] was 20%.

For `C=C(CCC=C(C)C)[C@H]1CC[C@]2(C)[C@@H]1[C@H](O)C[C@@H]1[C@@]3(C)CC[C@H](O[C@@H]4O[C@H](CO)[C@@H](O)[C@H](O)[C@H]4O[C@@H]4O[C@H](CO)[C@@H](O)[C@H](O)[C@H]4O)C(C)(C)[C@@H]3CC[C@]12C`, the inhibition [2] was 68%.

Work on `O=C(O[C@@H]1Cc2c(O)cc(O)cc2O[C@@H]1c1cc(O)c(O)c(O)c1)c1cc(O)c(O)c(O)c1` [EPIGALOCATECHIN GALLATE] yielded an IC50 [1] of 3760 µM.

Compound `CC(C)=CC/C=C(\C)[C@H]1CC[C@]2(C)[C@@H]1[C@H](O)C[C@@H]1[C@@]3(C)CC[C@H](O[C@@H]4O[C@H](CO)[C@@H](O)[C@H](O)[C@H]4O[C@@H]4O[C@H](CO)[C@@H](O)[C@H](O)[C@H]4O)C(C)(C)[C@@H]3CC[C@]12C` [GINSENOSIDE RG5] has an IC50 [1] of 150 µM and an inhibition [2] of 16%.

Compound `CC(C)=CCC[C@@](C)(O)[C@H]1CC[C@]2(C)[C@@H]1[C@H](O)C[C@@H]1[C@@]3(C)CC[C@H](O[C@@H]4O[C@H](CO)[C@@H](O)[C@H](O)[C@H]4O[C@@H]4O[C@H](CO)[C@@H](O)[C@H](O)[C@H]4O)C(C)(C)[C@@H]3CC[C@]12C` has an inhibition [2] of 72%.
